Laboratory results published in ChEMBL document CHEMBL3046881, “Precocious Metamorphosis-Inducing Activity of 1-Substituted Imidazoles” (1996).

Key:
Type in all cases: functional
Bombyx mori [1] = assay: Induction of precocious metamorphosis-inducing activity against fourth-instar larvae of Bombyx mori Shunrei x shogetsu at >80 ug treated topically
Bombyx mori [2] = assay: Induction of precocious metamorphosis-inducing activity against fourth-instar larvae of Bombyx mori Shunrei x shogetsu compound treated topically
Bombyx mori [3] = assay: Induction of precocious metamorphosis-inducing activity against fourth-instar larvae of Bombyx mori Shunrei x shogetsu at >40 ug treated topically
Bombyx mori [4] = assay: Induction of precocious metamorphosis-inducing activity against fourth-instar larvae of Bombyx mori Shunrei x shogetsu at 40 ug treated topically in presence of 0.01 ug tebufenozide
Bombyx mori [5] = assay: Induction of precocious metamorphosis-inducing activity against fourth-instar larvae of Bombyx mori Shunrei x shogetsu at 40 ug treated topically in presence of 10 ug methoprene
Bombyx mori [6] = assay: Induction of precocious metamorphosis-inducing activity against fourth-instar larvae of Bombyx mori Shunrei x shogetsu at 40 ug treated topically
Bombyx mori [7] = assay: Induction of precocious metamorphosis-inducing activity against fourth-instar larvae of Bombyx mori Shunrei x shogetsu at >160 ug treated topically

Structure (SMILES) | Activity (Bombyx mori [1]) [%] | ED50 (Bombyx mori [2]) [µg] | also measured
CCCCCCCCCCOc1ccc(-n2ccnc2)cc1 | 33 | >80 | 
CCc1cccc(OCCCn2ccnc2)c1 |  | 36 | 
CCCCOc1ccc(OCCCn2ccnc2)cc1 |  | 27 | 
CCCCCCCCn1ccnc1 |  | >40 | Activity (Bombyx mori [3]): 0%
CCCc1ccc(OCCCn2ccnc2)cc1 |  | 16 | Activity (Bombyx mori [4]): 0%; Activity (Bombyx mori [5]): 0%; Activity (Bombyx mori [6]): 100%
CCCCCCOc1ccc(-n2ccnc2)cc1 |  | 63 | 
c1ccc(OCCCn2ccnc2)cc1 | 0 | >80 | 
CCc1ccc(OCCCn2ccnc2)cc1 |  | 17 | 
CCCCCCOc1ccc(OCCCn2ccnc2)cc1 |  | 36 | 
CCCCCCCCCCCCCCn1ccnc1 |  | 30 | 
CC(C)(C)c1ccc(OCCCn2ccnc2)cc1 | 20 | >80 | 
c1ccc(Oc2ccc(OCCCn3ccnc3)cc2)cc1 | 0 | >80 | 
CCc1ccc(OCCn2ccnc2)cc1 |  | >160 | Activity (Bombyx mori [7]): 11%
CCCCCCCCOc1ccc(-n2ccnc2)cc1 |  | 40 | 
CCCCOc1ccc(-n2ccnc2)cc1 | 0 | >80 | 
c1ccc(Cn2ccnc2)cc1 [BENZYLIMIDAZOLE] | 0 | >80 | 
Clc1ccc(OCCCn2ccnc2)cc1 | 11 | >80 | 
CCC(C)c1ccc(OCCCn2ccnc2)cc1 (stereo not given) |  | 91 | 
CCCCCCCCCCn1ccnc1 |  | 18 | 
c1ccc(COc2ccc(OCCCn3ccnc3)cc2)cc1 |  | >160 | Activity (Bombyx mori [7]): 0%
CCc1ccccc1OCCCn1ccnc1 | 0 | >80 | 
CCc1ccc(OCCCCn2ccnc2)cc1 |  | >160 | Activity (Bombyx mori [7]): 20%
CCCCCCCCCCCCn1ccnc1 |  | 15 | Activity (Bombyx mori [4]): 0%; Activity (Bombyx mori [5]): 0%; Activity (Bombyx mori [6]): 100%
c1ccc(CCn2ccnc2)cc1 | 0 | >80 | 
CC(C)=CCCC(C)CCn1ccnc1 (stereo not given) |  | >40 | Activity (Bombyx mori [3]): 20%
